This note sets out measurements from patent US20240174631A1, “COMPOUNDS, COMPOSITIONS, AND METHODS FOR MODULATING FGF ACTIVITY” (Recovery Therapeutics, Inc., priority 2021, published 2024).

Data set [1] can be described thus: Body weight pre- and post-MCAO. The class given is in vivo. The following applies: rat MCAO; 10 mg/kg i.v. on Day 1, 2 and 3 after MCAO. As for the experimental part: The rats were randomly assigned into two groups of ten each. Each group was injected intravenously (i.v.) with 2 ml/kg Compound 2 at 10 mg/kg or vehicle (18% Cremophor RH40 and 10% DMSO in 5% dextrose solution (D5WW)) on Day 1, 2, and 3 after MCAO. Day 0 is the day of the MCAO, and the days after the MCAO are numbered consecutively (Day 1, Day 2, Day 3, etc.) D-pre represents the day prior to the MCAO.
Typically, after an initial rapid rise, there is a continued slow, steady, and partial improvement in sensorimotor function (as measured by forelimb and hindlimb placing and body swing tests) during the first three weeks after stroke. […] The normal rise in body weight following surgery was not affected by treatment with Compound 2.

For data set [2], the target named is T1, FGFR1 (Homo sapiens, UniProt P11362). Briefly: Thermal shift assay (TSA) of FGFR1/FGF2 complex, FGFR1 melting peak. The format is binding. On the set-up: made in house; host or cells: Escherichia coli BL21 (DE3) Star. The source says: TSA was utilized to biophysically characterize the recombinant human FGFR1/FGF2 complex in the presence or absence of compounds. The assay functions by protein denaturation over a temperature gradient. During protein unfolding, exposed hydrophobic regions bind a dye and fluoresce due to solvent relaxation effects. Changes in the melting temperature of the protein complex in the presence of each compound were monitored and compounds were screened/ranked using this method.
Cell pellets were thawed and resuspend in 100 mL of FGFR1 Lysis Buffer per 9 g of pellet (20 mM Tris-HCl pH 8.0, 500 mM NaCl, 1 mM dithiothreitol) by stirring at 4° C. for 1 hour. Cells were lysed in 3 cycles on/off for 3 minutes each at 4° C. via sonication followed by centrifugation for 30 minutes at 16,000 RPM in rotor F20 at 4° C., after which the supernatant was discarded. This process was then repeated twice. The pellets were resuspended in 150 mL FGFR1 solubilization buffer (8 M urea, 20 mM Tris-HCL pH 8.0, 150 mM NaCl, 1 mM dithiothreitol) by stirring for 1 hour at 4° C., and the solution was subjected to centrifugation for 30 minutes at 16,000 RPM in rotor F20 at 4° C. The pellets were discarded, and the supernatant was filtered through a […] polyethersylfone (PES) filter. After filtration, the supernatant was added dropwise to 1 L FGFR1 refolding buffer (20 mM Tris-HCl pH 8.0, 150 mM NaCl, 0.5 M L-arginine, 25 mM MgCl2) using a glass column. Protein was concentrated by tangential flow from 1 L to 100 mL and dialyzed against 1 L of FGFR1 Dialysis Buffer (20 mM Tris-HCl pH 8.0, 150 mM NaCl, 25 mM MgCl2) for 2 hours at 4° C., and the dialysis step was repeated with fresh buffer for an additional 2 hours at 4° C. The material thus obtained was then centrifuged at 4000 RPM in Eppendorf tabletop centrifuge for 5 minutes and loaded onto 2×5 mL heparin columns. The columns were washed extensively (20 CV) using FGFR1 Heparin Buffer A (20 mM Tris-HCl pH 8.0, 150 mM NaCl, 25 mM MgCl2) and then eluted using FGFR1 Heparin Buffer B (20 mM Tris-HCl pH 8.0, 1.5 M NaCl, 25 mM MgCl2). A large peak was recovered that was >95% pure by SDS-PAGE analysis gel (Expected Mw: 25 KDa). The protein was collected and diluted in 20 mM Tris-HCl pH 8.0, 25 mM MgCl2 buffer in order to reach a NaCl concentration of 150 mM. The FGFR1 thus obtained was concentrated and stored at −80° C.
Thawed aliquots of purified FGF2 (1.0 mg/mL) and FGFR1 (1.6 mg/mL) proteins were mixed in a 1:1 molar ratio (64 μM: 64 μM) on ice for 30 min at 4° C. and plated prior to the thermal shift assay (TSA). Complex formation was verified by loading the complexed material on a size exclusion column (superdex 300GL S200) and observing the monodisperse peak corresponding to the FGF2/FGFR1 complex (˜40 kDa). Compounds of the invention were screened in dose response format (0-100 μM) with the FGF2/FGFR1 complex in triplicates. FGF2/FGFR1/compound complexes were mixed in a 1000:1 ratio with Sypro Orange dye (Sigma-Aldrich). The samples were processed using a Bio-Rad CFX C96 Touch quantitative polymerase chain reaction and run using the FRET assay settings with a heating ramp of 0.3° C./s cycling from 4 to 100° C. Data analysis was performed using the Bio-Rad CFX Manager Software (version 3.1, Bio-Rad) and changes in the melting temperature (Tm) of the complex in the presence of each compound were monitored. The results are shown in Tables 2 and 3 below and also in FIG. 1 (for Compound 2).
Target sequence in this assay (P11362 142-365 limits assumed): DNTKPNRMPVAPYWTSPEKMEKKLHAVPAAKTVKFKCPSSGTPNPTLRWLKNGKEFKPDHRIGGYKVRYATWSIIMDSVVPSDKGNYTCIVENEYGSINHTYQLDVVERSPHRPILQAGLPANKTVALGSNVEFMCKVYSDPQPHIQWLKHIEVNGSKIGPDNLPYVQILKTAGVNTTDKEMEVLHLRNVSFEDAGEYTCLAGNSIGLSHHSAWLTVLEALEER
Target sequence in this assay (P09038 156-288 partner limits assumed): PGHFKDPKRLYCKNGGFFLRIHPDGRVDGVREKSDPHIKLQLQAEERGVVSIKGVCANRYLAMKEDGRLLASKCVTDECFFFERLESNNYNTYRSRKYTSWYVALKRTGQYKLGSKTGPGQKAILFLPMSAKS

Data set [3] addresses T1, FGFR1. As to the kind of experiment: Phosphorylation of FGFR1 in cells expressing FGFR1 in the presence of submaximal FGF-2. The format is cell-based. The following applies: increasing concentrations, submaximal concentration of FGF-2; FIG. 2. As for the experimental part: Cells expressing FGFR1 were exposed to increasing concentrations of Compound 2 in the presence of a submaximal concentration of FGF-2. Cells were then lysed, and the relative phosphorylation of FGFR1 was assessed using antibodies to non-phosphorylated and phosphorylated FGFR1. The results are shown in FIG. 2, which is a graph showing the phosphorylation of FGFR1 in the presence of increasing concentrations of Compound 2.
Target sequence in this assay (P11362 22-822): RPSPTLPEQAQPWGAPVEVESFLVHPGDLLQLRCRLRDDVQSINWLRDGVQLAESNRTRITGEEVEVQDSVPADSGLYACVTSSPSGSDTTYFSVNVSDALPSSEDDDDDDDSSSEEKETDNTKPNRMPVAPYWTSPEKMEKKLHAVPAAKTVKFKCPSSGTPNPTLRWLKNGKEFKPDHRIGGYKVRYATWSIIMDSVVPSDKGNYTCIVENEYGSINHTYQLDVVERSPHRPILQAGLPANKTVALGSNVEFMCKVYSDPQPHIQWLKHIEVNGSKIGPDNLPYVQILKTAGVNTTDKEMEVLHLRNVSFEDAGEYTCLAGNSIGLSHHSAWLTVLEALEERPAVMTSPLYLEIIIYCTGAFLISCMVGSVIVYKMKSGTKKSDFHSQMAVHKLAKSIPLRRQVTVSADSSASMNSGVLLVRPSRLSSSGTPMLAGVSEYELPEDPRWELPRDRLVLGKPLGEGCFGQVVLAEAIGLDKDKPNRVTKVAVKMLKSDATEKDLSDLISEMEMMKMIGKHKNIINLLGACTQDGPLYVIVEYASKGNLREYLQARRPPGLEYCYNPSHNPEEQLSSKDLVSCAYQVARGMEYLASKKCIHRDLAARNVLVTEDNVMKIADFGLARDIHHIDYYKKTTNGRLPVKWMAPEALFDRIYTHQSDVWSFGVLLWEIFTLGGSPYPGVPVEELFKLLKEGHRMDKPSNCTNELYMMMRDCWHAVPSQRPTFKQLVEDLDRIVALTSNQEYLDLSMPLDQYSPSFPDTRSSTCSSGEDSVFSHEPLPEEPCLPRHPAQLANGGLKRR
Target sequence in this assay (P09038 143-288 partner): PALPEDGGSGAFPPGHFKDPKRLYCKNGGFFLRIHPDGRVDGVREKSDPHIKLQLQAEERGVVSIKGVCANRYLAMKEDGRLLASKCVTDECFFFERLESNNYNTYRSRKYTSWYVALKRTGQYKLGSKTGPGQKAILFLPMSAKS

SMILES strings stand for the structures.

For `CCN(CC)c1ccc2c(c1)CCN(C1CCN(C(c3ccccc3)c3ccccc3)CC1)C2` [Compound 2, 2-(1-benzhydrylpiperidin-4-yl)-N,N-diethyl-1,2,3,4-tetrahydroisoquinolin-6-amine], the “rise in body weight following surgery” value in data set [1] was “not affected”. For the same compound, at FGFR1 [2] (2 μM compound, FGF2/FGFR1 complex), the thermal shift (ΔTm) at 2 µM turned out to be 4 °C. Moreover, the ΔTm at 10 µM on FGFR1 [2] (10 μM compound, FGF2/FGFR1 complex) was found to be 4.5 °C. Also, the “shift of the melting curve of the FGF-2/FGFR1 complex (TSA)” value at FGFR1 [2] (10 μM, purified FGF-2/FGFR1 complex, FIG. 1) is on record as “increased stability of the complex”. The “phosphorylation of FGFR1” value at FGFR1 [3] is “augmented the effects of FGF-2”.
